Source: patent US20240124444A1 (Celgene Corporation, priority 2020, published 2024)

Test system: C. parvum strain UGA1
Test: C. parvum growth inhibition assay (Nluc luminescence in HCT-8 cells)
Assay type: cell-based, Cryptosporidium parvum
Conditions: Cryptosporidium parvum, HCT-8; for inhibition at 1 µM: single point inhibition at 1 uM, read-out: % inh @ 1 uM C. parvum; for inhibition at 10 µM: single point inhibition at 10 uM, read-out: % inh @ 10 uM C. parvum

Row | SMILES | inhibition at 1 µM [%] | inhibition at 10 µM [%]
1 | COc1ccc(Nc2cc3c(cn2)cc(-c2cnn(C)c2)n3C)c(C)c1 [Example 258, N-(4-methoxy-2-methylphenyl)-1-methyl-2-(1-methyl-1H-pyrazol-4-yl)-1H-pyrrolo[3,2-c]pyridin-6-amine] | 0 to 33 | 0 to 33
2 | Cn1cc(C(=O)Nc2cc3[nH]c(C4CCOCC4)cc3cn2)cn1 [Example 259, 1-methyl-N-(2-(tetrahydro-2H-pyran-4-yl)-1H-pyrrolo[3,2-c]pyridin-6-yl)-1H-pyrazole-4-carboxamide] | 0 to 33 | 0 to 33
3 | COCc1cc2cnc(NC(=O)c3cnn(C)c3)cc2[nH]1 [Example 260, N-(2-(methoxymethyl)-1H-pyrrolo[3,2-c]pyridin-6-yl)-1-methyl-1H-pyrazole-4-carboxamide] | 0 to 33 | 0 to 33
4 | Cc1cc(-c2cc3cnc(NC(=O)N4CCCC4)cc3[nH]2)ccn1 [Example 261, N-(2-(2-methylpyridin-4-yl)-1H-pyrrolo[3,2-c]pyridin-6-yl)pyrrolidine-1-carboxamide] | 0 to 33 | 0 to 33
5 | Cn1cc(C(=O)Nc2cc3[nH]c(-c4nc[nH]n4)cc3cn2)cn1 [Example 264, N-(2-(1H-1,2,4-triazol-3-yl)-1H-pyrrolo[3,2-c]pyridin-6-yl)-1-methyl-1H-pyrazole-4-carboxamide] | 0 to 33 | 0 to 33
6 | Cn1c(-c2ccccc2)cc2cnc(NC(=O)C3CCOCC3)cc21 [Example 265, N-(1-methyl-2-phenyl-1H-pyrrolo[3,2-c]pyridin-6-yl)tetrahydro-2H-pyran-4-carboxamide] | 0 to 33 | 0 to 33
7 | Cn1c(-c2cccnc2)cc2cnc(Nc3cnn(C4CCOCC4)c3)cc21 [Example 266, 1-methyl-2-(pyridin-3-yl)-N-(1-(tetrahydro-2H-pyran-4-yl)-1H-pyrazol-4-yl)-1H-pyrrolo[3,2-c]pyridin-6-amine] | 0 to 33 | 0 to 33
8 | Cc1ncc(-c2cc3cnc(NC(=O)c4cnn(C)c4)cc3[nH]2)o1 [Example 267, 1-methyl-N-(2-(2-methyloxazol-5-yl)-1H-pyrrolo[3,2-c]pyridin-6-yl)-1H-pyrazole-4-carboxamide] | 0 to 33 | 0 to 33
9 | O=C(Nc1cc2[nH]c(-c3ccc(F)cn3)cc2cn1)C1CC1 [Example 268, N-(2-(5-fluoropyridin-2-yl)-1H-pyrrolo[3,2-c]pyridin-6-yl)cyclopropanecarboxamide] | 0 to 33 | 0 to 33
10 | COc1nccc(-c2cc3cnc(NC(=O)c4cccc5[nH]ncc45)cc3[nH]2)n1 [Example 269, N-(2-(2-methoxypyrimidin-4-yl)-1H-pyrrolo[3,2-c]pyridin-6-yl)-1H-indazole-4-carboxamide] | 0 to 33 | 0 to 33
11 | CCOc1nccc(-c2cc3cnc(NC(=O)c4cnn([C@H]5C[C@H](O)C5)c4)cc3[nH]2)n1 [Example 270, N-(2-(2-ethoxypyrimidin-4-yl)-1H-pyrrolo[3,2-c]pyridin-6-yl)-1-((1r,3r)-3-hydroxycyclobutyl)-1H-pyrazole-4-carboxamide] | 0 to 33 | 0 to 33
12 | c1ccc(Nc2cc3[nH]c(-c4ccccc4)cc3cn2)cc1 [Example 271, N,2-diphenyl-1H-pyrrolo[3,2-c]pyridin-6-amine] | 0 to 33 | 0 to 33
13 | c1cc(Nc2cc3[nH]c(-c4cccnc4)cc3cn2)cc(-c2nc[nH]n2)c1 [Example 272, N-(3-(1H-1,2,4-triazol-3-yl)phenyl)-2-(pyridin-3-yl)-1H-pyrrolo[3,2-c]pyridin-6-amine] | 0 to 33 | 0 to 33
14 | CC(C)CNc1cc2[nH]c(-c3cccnc3)cc2cn1 [Example 273, N-isobutyl-2-(pyridin-3-yl)-1H-pyrrolo[3,2-c]pyridin-6-amine] | 0 to 33 | 0 to 33
15 | CO[C@H]1CC[C@H](Nc2cc3[nH]c(-c4cccnc4)cc3cn2)CC1 [Example 274, N-((1r,4r)-4-methoxycyclohexyl)-2-(pyridin-3-yl)-1H-pyrrolo[3,2-c]pyridin-6-amine] | 0 to 33 | 0 to 33
16 | Cn1c(-c2cccnc2)cc2cnc(Nc3cccc(-c4nc[nH]n4)c3)cc21 [Example 275, N-(3-(1H-1,2,4-triazol-3-yl)phenyl)-1-methyl-2-(pyridin-3-yl)-1H-pyrrolo[3,2-c]pyridin-6-amine] | 0 to 33 | 0 to 33
17 | O=C(Nc1cc2[nH]c(-c3cccnc3)cc2cn1)C1CCCC1 [Example 276, N-(2-(pyridin-3-yl)-1H-pyrrolo[3,2-c]pyridin-6-yl)cyclopentanecarboxamide] | 0 to 33 | 0 to 33
18 | O=C(Nc1cc2[nH]c(-c3ccncc3)cc2cn1)c1ccccc1 [Example 277, N-(2-(pyridin-4-yl)-1H-pyrrolo[3,2-c]pyridin-6-yl)benzamide] | 0 to 33 | 0 to 33
19 | Cc1nn(C)cc1C(=O)Nc1cc2[nH]c(-c3ccncc3)cc2cn1 [Example 278, 1,3-dimethyl-N-(2-(pyridin-4-yl)-1H-pyrrolo[3,2-c]pyridin-6-yl)-1H-pyrazole-4-carboxamide] | 0 to 33 | 0 to 33
20 | Cn1cc(C(=O)Nc2cc3c(cn2)cc(C#N)n3C)cn1 [Example 279, N-(2-cyano-1-methyl-1H-pyrrolo[3,2-c]pyridin-6-yl)-1-methyl-1H-pyrazole-4-carboxamide] | 0 to 33 | 0 to 33
21 | Cn1cc(C(=O)Nc2cc3[nH]c(C#N)cc3cn2)cn1 [Example 280, N-(2-cyano-1H-pyrrolo[3,2-c]pyridin-6-yl)-1-methyl-1H-pyrazole-4-carboxamide] | 0 to 33 | 0 to 33
22 | Cc1cn(C)nc1C(=O)Nc1cc2[nH]c(-c3ccncc3)cc2cn1 [Example 281, 1,4-dimethyl-N-(2-(pyridin-4-yl)-1H-pyrrolo[3,2-c]pyridin-6-yl)-1H-pyrazole-3-carboxamide] | 0 to 33 | 0 to 33
23 | Cc1cc(C(=O)Nc2cc3[nH]c(-c4ccncc4)cc3cn2)nn1C [Example 282, 1,5-dimethyl-N-(2-(pyridin-4-yl)-1H-pyrrolo[3,2-c]pyridin-6-yl)-1H-pyrazole-3-carboxamide] | 0 to 33 | 0 to 33
24 | Cc1nccc(-c2cc3cnc(NC(=O)c4cnn(C)c4)cc3[nH]2)c1F [Example 283, N-(2-(3-fluoro-2-methylpyridin-4-yl)-1H-pyrrolo[3,2-c]pyridin-6-yl)-1-methyl-1H-pyrazole-4-carboxamide] | 0 to 33 | 0 to 33
25 | Cn1cc(C(=O)Nc2cc3[nH]c(-c4ccnc(C(F)(F)F)c4)cc3cn2)cn1 [Example 284, 1-methyl-N-(2-(2-(trifluoromethyl)pyridin-4-yl)-1H-pyrrolo[3,2-c]pyridin-6-yl)-1H-pyrazole-4-carboxamide] | 0 to 33 | 0 to 33
26 | Cc1cc2cnc(NC(=O)c3cnn(C)c3)cc2[nH]1 [Example 285, 1-methyl-N-(2-methyl-1H-pyrrolo[3,2-c]pyridin-6-yl)-1H-pyrazole-4-carboxamide] | 0 to 33 | 0 to 33
